{
  "source": "ChEMBL document CHEMBL1131932",
  "about": "“Simplification of adenophostin A defines a minimal structure for potent glucopyranoside-based mimics of D-myo-inositol 1,4,5-trisphosphate” (Bioorg Med Chem Lett, 1999)",
  "species": "Rattus norvegicus",
  "test": "Effect on [Ca2+] efflux in rat hepatocytes",
  "format": "functional",
  "details": "Hepatocyte",
  "data": [
    {"compound": "O=P(O)(O)O[C@@H]1[C@H](O)[C@H](O)[C@@H](OP(=O)(O)O)[C@H](OP(=O)(O)O)[C@H]1O", "note": "[INS(1,4,5)P3]", "values": [
      {"measurement": "EC50", "result": 0.329, "unit": "µM"}
    ]},
    {"compound": "O=P(O)(O)O[C@@H]1[C@H](O)[C@@H](O[C@@H]2COC[C@@H]2OP(=O)(O)O)O[C@@H](CO)[C@H]1OP(=O)(O)O", "values": [
      {"measurement": "EC50", "result": 0.194, "unit": "µM"}
    ]}
  ]
}
